Laboratory results published in ChEMBL document CHEMBL1201862, “PubChem BioAssay data set” (2004).
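1) Cells in 96-well plates. 2) Compound, 48 h, 5 concentrations. 3) Linear interpolation between surrounding doses. 4) Unreached endpoint = highest concentration. GI50 is the concentration that inhibits growth by half.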 Active and inactive are the calls of the source. Rule as the data show it: active = GI50 up to about 1.1 µM and inactive = higher.

Key:
Experiment in all cases: inhibition of tumour cell growth, NCI panel, 48 h
SW-620 = tested on: SW-620
NCI-H460 = tested on: NCI-H460
MDA-N = tested on: MDA-N
M14 = tested on: M14
Hs-578T = tested on: Hs-578T
SNB-19 = tested on: SNB-19
SF-539 = tested on: SF-539
NCI-H226 = tested on: NCI-H226
RXF 393 = tested on: RXF 393
A498 = tested on: A498
PC-3 = tested on: PC-3
SR = tested on: SR
ACHN = tested on: ACHN
RPMI-8226 = tested on: RPMI-8226
Malme-3M = tested on: Malme-3M
786-0 = tested on: 786-0
SK-MEL-28 = tested on: SK-MEL-28
KM12 = tested on: KM12
U-251 = tested on: U-251

Measured: GI50

CC(=O)CC1(OC(=O)C2C(C=C(C)C)C2(C)C)C(=O)Nc2ccccc21 (stereo not drawn)
inactive: SW-620 > 100 µM | NCI-H460 82.8 µM | MDA-N > 100 µM | M14 > 100 µM | Hs-578T > 100 µM | SNB-19 > 100 µM | SF-539 > 100 µM | NCI-H226 > 100 µM | RXF 393 > 100 µM | A498 > 100 µM | PC-3 37.6 µM | SR > 100 µM | ACHN 78.3 µM | RPMI-8226 96.6 µM | Malme-3M > 100 µM | 786-0 > 100 µM | SK-MEL-28 > 100 µM | KM12 > 100 µM | U-251 > 100 µM

C(=N\c1ccc(-c2nc3ccccc3s2)cc1)/c1cccs1
inactive: SW-620 75.3 µM | NCI-H460 36.1 µM | MDA-N 39.4 µM | M14 69 µM | Hs-578T 41.7 µM | SNB-19 88.3 µM | SF-539 59.3 µM | NCI-H226 54.2 µM | RXF 393 27.5 µM | A498 25.1 µM | PC-3 38.1 µM | SR 39.6 µM | ACHN 35.8 µM | RPMI-8226 33.4 µM | Malme-3M 68.5 µM | 786-0 48.2 µM | SK-MEL-28 > 100 µM | KM12 40.1 µM | U-251 49.2 µM

C(/C=N/N=C1NCCN1)=N\N=C1NCCN1
inactive: SW-620 > 100 µM | NCI-H460 > 100 µM | MDA-N > 100 µM | M14 > 100 µM | Hs-578T > 100 µM | SNB-19 > 100 µM | SF-539 > 100 µM | NCI-H226 > 100 µM | RXF 393 > 100 µM | A498 > 100 µM | PC-3 > 100 µM | SR > 100 µM | ACHN > 100 µM | RPMI-8226 > 100 µM | Malme-3M > 100 µM | 786-0 > 100 µM | SK-MEL-28 > 100 µM | KM12 > 100 µM | U-251 > 100 µM

COc1cc2c(cc1OC)C13CCN4C=C5CCOC6CC(=O)N2C1C6C5CC43 (stereo not drawn)
inactive: SW-620 > 100 µM | NCI-H460 > 100 µM | MDA-N > 100 µM | M14 > 100 µM | Hs-578T > 100 µM | SNB-19 > 100 µM | SF-539 > 100 µM | NCI-H226 > 100 µM | RXF 393 > 100 µM | A498 > 100 µM | PC-3 > 100 µM | SR > 100 µM | ACHN > 100 µM | RPMI-8226 > 100 µM | Malme-3M > 100 µM | 786-0 > 100 µM | SK-MEL-28 > 100 µM | KM12 > 100 µM | U-251 > 100 µM

CC(C)(C)COC(=O)C(C)(C)NC(=O)C(CC(=O)OCc1ccccc1)NC(=O)OCc1ccccc1 (stereo not drawn)
inactive: SW-620 60.4 µM | NCI-H460 30 µM | MDA-N 30.9 µM | M14 32.1 µM | Hs-578T 27.9 µM | SNB-19 38.3 µM | SF-539 25.1 µM | NCI-H226 29.2 µM | RXF 393 > 100 µM | A498 28.2 µM | PC-3 25.7 µM | SR 25.5 µM | ACHN 32.9 µM | RPMI-8226 26.5 µM | Malme-3M 29.6 µM | 786-0 > 100 µM | SK-MEL-28 > 100 µM | KM12 35.2 µM | U-251 31.5 µM

CN(C)/C=N/Cc1ccc2c(c1)OCO2
inactive: SW-620 > 100 µM | NCI-H460 > 100 µM | MDA-N > 100 µM | M14 > 100 µM | Hs-578T > 100 µM | SNB-19 > 100 µM | SF-539 > 100 µM | NCI-H226 > 100 µM | RXF 393 > 100 µM | A498 > 100 µM | PC-3 > 100 µM | SR > 100 µM | ACHN > 100 µM | RPMI-8226 > 100 µM | Malme-3M > 100 µM | 786-0 > 100 µM | SK-MEL-28 > 100 µM | KM12 > 100 µM | U-251 > 100 µM

Cc1csc2c(=O)n(COCc3ccccc3)c(=O)[nH]c12
inactive: SW-620 > 100 µM | NCI-H460 > 100 µM | MDA-N > 100 µM | M14 > 100 µM | Hs-578T 65 µM | SNB-19 > 100 µM | SF-539 > 100 µM | NCI-H226 > 100 µM | RXF 393 > 100 µM | A498 > 100 µM | PC-3 > 100 µM | SR > 100 µM | ACHN > 100 µM | RPMI-8226 > 100 µM | Malme-3M > 100 µM | 786-0 > 100 µM | SK-MEL-28 > 100 µM | KM12 > 100 µM | U-251 > 100 µM

CCN(CC)CCOCCOCC1(c2ccc(Cl)c(Cl)c2)CCCCC1
inactive: SW-620 5.61 µM | NCI-H460 3.39 µM | MDA-N 3.65 µM | M14 1.7 µM | Hs-578T 2.96 µM | SNB-19 13.4 µM | SF-539 11.2 µM | NCI-H226 17.9 µM | RXF 393 4.26 µM | A498 13.1 µM | PC-3 11.2 µM | SR 11 µM | ACHN 15.2 µM | RPMI-8226 2.51 µM | Malme-3M 5.33 µM | 786-0 3.28 µM | SK-MEL-28 5.22 µM | KM12 5.06 µM | U-251 9.25 µM

CCCCCC(/C=C/C1CCC(=O)C1CC#C[Si](C)(C)C)OCc1ccccc1 (stereo not drawn)
inactive: SW-620 24 µM | NCI-H460 17 µM | MDA-N 21.1 µM | M14 25 µM | Hs-578T 17.9 µM | SNB-19 28.4 µM | SF-539 12.1 µM | NCI-H226 30.5 µM | RXF 393 13.9 µM | A498 36.3 µM | PC-3 17.3 µM | SR > 35 µM | ACHN 17.5 µM | RPMI-8226 14.7 µM | Malme-3M 15.9 µM | 786-0 14.6 µM | SK-MEL-28 23 µM | KM12 16.2 µM | U-251 19 µM

CC(=O)Oc1ccc2cc(Oc3ccc(Cl)c(Cl)c3)c(=O)oc2c1
inactive: SW-620 33.3 µM | NCI-H460 24 µM | MDA-N 25.9 µM | M14 38.5 µM | Hs-578T 33 µM | SNB-19 27.9 µM | SF-539 19.7 µM | NCI-H226 26.6 µM | RXF 393 19.2 µM | A498 22.3 µM | PC-3 24.7 µM | SR 35.3 µM | ACHN 25.8 µM | RPMI-8226 20.4 µM | Malme-3M 29.2 µM | 786-0 19.5 µM | SK-MEL-28 25.3 µM | KM12 18.5 µM | U-251 16 µM

C/C(=N\O)c1cccc(Nc2nc3ccccc3c3occc23)c1
inactive: NCI-H460 4.35 µM | MDA-N 13.1 µM | M14 12.7 µM | Hs-578T 12.1 µM | SNB-19 16.9 µM | SF-539 15.5 µM | NCI-H226 1.72 µM | RXF 393 5.19 µM | A498 14.8 µM | PC-3 12.1 µM | SR 5.81 µM | ACHN 10.3 µM | RPMI-8226 7.06 µM | Malme-3M 14.4 µM | 786-0 12.7 µM | SK-MEL-28 14.3 µM | KM12 10 µM | U-251 19.4 µM
